# Laboratory results as given in patent publication US20080064668A1, “1,3-Diacylated, 26,27-Alkyl/Haloakyl Vitamin D3 Compounds and Methods of Use Thereof” (BioXell S.p.A., priority 2003, published 2008).
# Key:
# [1] = system: rats with CYP-induced cystitis; test: Cyclophosphamide (CYP) induced chronic IC in rats, cystometry; assay type: in vivo, Wistar rats
# Excerpt: The rat model of chemical cystitis induced by intraperitoneal injection of CYP has been well accepted. CYP is used in clinical practice in the treatment of a number of malignant tumors. One of its metabolites, acrolein, is excreted in urine in large concentrations causing hemorrhagic cystitis associated with symptoms of urinary frequency, urgency and pelvic pain. The inflammatory process is characterized by changes in gross histology of bladder, increase in number and distribution of inflammatory cell infiltrates (mast cells, macrophage, PMNs), cyclo-oxygenase-2 expression and prostaglandin production, growth factor and cytokine production. […]
# This model was used to test the effects of 1,25-dihydroxyvitamin D3 analogue in rats with CYP-induced cystitis. The effects of the treatment on the cystometric parameters in a conscious freely moving rat with CYP-induced cystitis were monitored. The following cystometric parameters were recorded in each animal: bladder capacity, filling pressure (pressure at the beginning of the bladder filling), threshold pressure (bladder pressure immediately prior to micturition), micturition pressure (the maximal bladder pressure during micturition), presence or absence of non-voiding bladder contractions (increases in bladder pressure of at least 10 cm H20 without release of urine), and amplitude of non-voiding bladder contraction. […]
# RT4 = test: Proliferation assay using bladder cancer cell lines, RT4; assay type: cell-based, human; settings: Homo sapiens, RT-4, 72 h, 72 h culture, CyQuant proliferation assay
# Protocol: (§1) Bladder cancer cell lines (T24, RT112, HT1376 and RT4 are human bladder cancer cell lines; NHEK are normal human keratinocytes) were obtained from the European Collection of Cell Cultures (Salisbury, UK). Cells were plated at 3×10^3 per well, in flat bottomed 96-well plates in 100 μl of DMEM medium containing: 5% Fetal Clone I, 50 μg/l gentamicin, 1 mM sodium pyruvate and 1% non-essential amino acids. After culturing for 24 h at 37° C. in 5% CO2, to allow cells to adhere to the plates, VDR ligands (compounds (2), (4), (5) and other vitamin D3 analogs as shown in Table 4) were added at concentrations ranging from 100 μM to 0.3 μM in 100 μl of above-mentioned complete medium. After a further 72 h of culture, cell proliferation was measured using a fluorescence-based proliferation assay kit. (CyQuant Cell Proliferation Assay Kit, Molecular Probes, Eugene, Oreg., USA). The IC50 was calculated from the regression curve of the titration data.
# non-obese (NOD)/Lt mice = test: Inhibition of Type 1 Diabetes development by VDR ligand administration; assay type: in vivo; settings: for mice diabetic by 27 weeks of age: vehicle controls about 70%
# Protocol: The non-obese (NOD)/Lt mice used for the experiments were purchased from Charles River Laboratories (Calco, Italy). All mice were kept under specific pathogen-free conditions. Glucose levels in the tail venous blood were quantified using a EUROFlash (Lifescan, Issy les Moulineaux, France). A diagnosis of diabetes was after two sequential glucose measurements higher than 200 mg/dl.
# 1,3-Di-O-acetyl-1,25-dihydroxy-16,23Z-diene-26,27-hexafluoro-19-nor-cholecalciferol (2) was dissolved in ethanol (1 mg/ml) and then diluted in miglyol 812. […]
# ECV = test: Proliferation assay using bladder cancer cell lines, ECV; assay type: cell-based, human; settings: Homo sapiens; 72 h culture, CyQuant proliferation assay
# NHEK = test: Proliferation assay, NHEK normal human keratinocytes; assay type: cell-based; settings: Homo sapiens, NHEK; 72 h culture, CyQuant proliferation assay
# Protocol: as §1
smiles,measurement,setting,value
"CC(=O)OC1C/C(=C/C=C2\CCC[C@]3(C)C(C(C)C/C=C\C(O)(C(F)(F)F)C(F)(F)F)=CCC23)C[C@@H](OC(C)=O)C1 (some centres unmarked) [Compound (2), 1,3-Di-O-acetyl-1,25-dihydroxy-16,23Z-diene-26,27-hexafluoro-19-nor-cholecalciferol]",ability to treat bladder dysfunction,[1],has the ability to treat bladder dysfunction
same,IC50,RT4,20 µM
same,Percent Type 1 Diabetes Mellitus incidence,"non-obese (NOD)/Lt mice; 0.1 ug/kg p.o., week 8",2%
same,Percent Type 1 Diabetes Mellitus incidence,"non-obese (NOD)/Lt mice; 0.1 ug/kg p.o., week 12",2%
same,Percent Type 1 Diabetes Mellitus incidence,"non-obese (NOD)/Lt mice; 0.1 ug/kg p.o., week 13",2%
same,Percent Type 1 Diabetes Mellitus incidence,"non-obese (NOD)/Lt mice; 0.1 ug/kg p.o., week 14",2%
same,Percent Type 1 Diabetes Mellitus incidence,"non-obese (NOD)/Lt mice; 0.1 ug/kg p.o., week 15",2%
same,Percent Type 1 Diabetes Mellitus incidence,"non-obese (NOD)/Lt mice; 0.1 ug/kg p.o., week 16",2%
same,Percent Type 1 Diabetes Mellitus incidence,"non-obese (NOD)/Lt mice; 0.1 ug/kg p.o., week 17",10%
same,Percent Type 1 Diabetes Mellitus incidence,"non-obese (NOD)/Lt mice; 0.1 ug/kg p.o., week 18",10%
same,Percent Type 1 Diabetes Mellitus incidence,"non-obese (NOD)/Lt mice; 0.1 ug/kg p.o., week 19",10%
same,Percent Type 1 Diabetes Mellitus incidence,"non-obese (NOD)/Lt mice; 0.1 ug/kg p.o., week 20",10%
same,Percent Type 1 Diabetes Mellitus incidence,"non-obese (NOD)/Lt mice; 0.1 ug/kg p.o., week 21",20%
same,Percent Type 1 Diabetes Mellitus incidence,"non-obese (NOD)/Lt mice; 0.1 ug/kg p.o., week 22",30%
same,Percent Type 1 Diabetes Mellitus incidence,"non-obese (NOD)/Lt mice; 0.1 ug/kg p.o., week 23",30%
same,Percent Type 1 Diabetes Mellitus incidence,"non-obese (NOD)/Lt mice; 0.1 ug/kg p.o., week 24",40%
same,Percent Type 1 Diabetes Mellitus incidence,"non-obese (NOD)/Lt mice; 0.1 ug/kg p.o., week 25",40%
same,Percent Type 1 Diabetes Mellitus incidence,"non-obese (NOD)/Lt mice; 0.1 ug/kg p.o., week 26",40%
same,Percent Type 1 Diabetes Mellitus incidence,"non-obese (NOD)/Lt mice; 0.1 ug/kg p.o., week 27",40%
same,mice diabetic by 27 weeks of age,non-obese (NOD)/Lt mice; 0.1 mg/Kg per os 5×/week from 8 to 16 weeks of age,30%
same,mice diabetic by 27 weeks of age,non-obese (NOD)/Lt mice; 0.2 mg/Kg per os 5×/week from 8 to 16 weeks of age,40%
same,Percent Type 1 Diabetes Mellitus incidence,"non-obese (NOD)/Lt mice; 0.2 mg/kg p.o., week 8",1%
same,Percent Type 1 Diabetes Mellitus incidence,"non-obese (NOD)/Lt mice; 0.2 mg/kg p.o., week 12",1%
same,Percent Type 1 Diabetes Mellitus incidence,"non-obese (NOD)/Lt mice; 0.2 mg/kg p.o., week 13",1%
same,Percent Type 1 Diabetes Mellitus incidence,"non-obese (NOD)/Lt mice; 0.2 mg/kg p.o., week 14",1%
same,Percent Type 1 Diabetes Mellitus incidence,"non-obese (NOD)/Lt mice; 0.2 mg/kg p.o., week 15",1%
same,Percent Type 1 Diabetes Mellitus incidence,"non-obese (NOD)/Lt mice; 0.2 mg/kg p.o., week 16",1%
same,Percent Type 1 Diabetes Mellitus incidence,"non-obese (NOD)/Lt mice; 0.2 mg/kg p.o., week 17",1%
same,Percent Type 1 Diabetes Mellitus incidence,"non-obese (NOD)/Lt mice; 0.2 mg/kg p.o., week 18",1%
same,Percent Type 1 Diabetes Mellitus incidence,"non-obese (NOD)/Lt mice; 0.2 mg/kg p.o., week 19",1%
same,Percent Type 1 Diabetes Mellitus incidence,"non-obese (NOD)/Lt mice; 0.2 mg/kg p.o., week 20",10%
same,Percent Type 1 Diabetes Mellitus incidence,"non-obese (NOD)/Lt mice; 0.2 mg/kg p.o., week 21",10%
same,Percent Type 1 Diabetes Mellitus incidence,"non-obese (NOD)/Lt mice; 0.2 mg/kg p.o., week 22",10%
same,Percent Type 1 Diabetes Mellitus incidence,"non-obese (NOD)/Lt mice; 0.2 mg/kg p.o., week 23",20%
same,Percent Type 1 Diabetes Mellitus incidence,"non-obese (NOD)/Lt mice; 0.2 mg/kg p.o., week 24",20%
same,Percent Type 1 Diabetes Mellitus incidence,"non-obese (NOD)/Lt mice; 0.2 mg/kg p.o., week 25",20%
same,Percent Type 1 Diabetes Mellitus incidence,"non-obese (NOD)/Lt mice; 0.2 mg/kg p.o., week 26",30%
same,Percent Type 1 Diabetes Mellitus incidence,"non-obese (NOD)/Lt mice; 0.2 mg/kg p.o., week 27",30%
same,incidence of disease compared to controls,"non-obese (NOD)/Lt mice; NOD/Lt female mice, 0.1 or 0.2 mg/Kg per os",significantly lower
same,IC50,ECV,55 µM
same,IC50,NHEK,9.8 µM
